Measured values: patent publication US12473298B2, “Amide compounds, preparation method therefor, and use thereof in the medical field” (Shanghai Synergy Pharmaceutical Sciences Co., Ltd., priority 2019, dated 2025)
Like-named read-outs stand apart in the source and are kept apart here.

Experiments:
[1] = system: human diffuse large B-cell lymphoma cells (Karpas 422 cell); assay: Karpas 422 cell proliferation, Calcein AM staining; assay type: cell-based; conditions: Homo sapiens, KARPAS-422; data of 14th day; read-out: Karpas422 Proliferation IC50 Nanomoles per Liter
Mutant type EZH2(Y641F) = Mutant type EZH2(Y641F) (Homo sapiens (Human), UniProt Q15910, Y641F); assay: AlphaLISA, mutant type PRC2 complex EZH2(Y641F); assay type: biochemical; conditions: read-out: Mutant type EZH2(Y641F) IC50 Nanomoles per Liter
[2] = Pharmacokinetic experiment in rats; assay type: in vivo, SD rats
Experimental: A certain amount of compound was weighted and dissolved in 0.1% Tween under vortex and ultrasound, and 0.5% carboxymethyl cellulose sodium (CMC-NA) solution was added to form a uniform solution.

[3] = system: human diffuse large cell lymphoma B lymphocytes (Pfeiffer cell); assay: Pfeiffer cell proliferation, Calcein AM staining; assay type: cell-based; conditions: Homo sapiens, Pfeiffer; data of 14th day; read-out: Pfeiffer Proliferation IC50 Nanomoles per Liter
Text: The diffuse large cell lymphoma B lymphocytes (Pfeiffer cells) were collected and counted when growing well.

Mutant type EZH2(Y641N) = Mutant type EZH2(Y641N) (Homo sapiens (Human), UniProt Q15910, Y641N); assay: AlphaLISA, mutant type PRC2 complex EZH2(Y641N); assay type: biochemical; conditions: read-out: Mutant type EZH2(Y641N) IC50 Nanomoles per Liter
Mutant type EZH2(A677G) = Mutant type EZH2(A677G) (Homo sapiens (Human), UniProt Q15910, A677G); assay: AlphaLISA, mutant type PRC2 complex EZH2(A677G); assay type: biochemical; conditions: read-out: Mutant type EZH2(A677G) IC59 Nanomoles per Liter
wild-type EZH2 = wild-type EZH2 (Homo sapiens (Human), UniProt Q15910); assay: radiometric assay, activity to wild-type EZH2 of PRC2; conditions: read-out: Wild-type EZH2 IC50 Nanomoles per Liter
Experimental: 25 μL of reaction solution was transferred to a scintillation plate, which was incubated at room temperature for 1 hour (h) and washed with deionized water and 0.1% Tween 20 for three times. A PerkinElmer liquid scintillation/luminescence counter was used to read the value, and GraphPad Prism 5 was used to calculate the median inhibitory concentration (IC50) of the compounds.

[4] = male, SD, rat, plasma, rats, Intravenous-Dose 4 mg/kg, read-out: Area Curve (AUC, ng/mL · h)
[5] = male, SD, rat, plasma; rats, Intravenous-Dose 4 mg/kg; read-out: Half life T1/2, h) (converted)
[6] = male, SD, rat, plasma, rats, Oral-Dose 20 mg/kg, read-out: Area Curve (AUC, ng/mL · h)
[7] = male, SD, rat, plasma, rats, Oral-Dose 20 mg/kg, read-out: Blood Drug level (Cmax, ng/mL)
[8] = male, SD, rat, plasma, rats, oral 20 mg/kg vs intravenous 4 mg/kg, read-out: Bioavailability (P %)
[9] = male, SD, rat, in vivo, iv, 4 mg/kg
[10] = male, SD, rat, in vivo, po, 20 mg/kg

Sequence of Mutant type EZH2(A677G) (Q15910 whole entry A677G): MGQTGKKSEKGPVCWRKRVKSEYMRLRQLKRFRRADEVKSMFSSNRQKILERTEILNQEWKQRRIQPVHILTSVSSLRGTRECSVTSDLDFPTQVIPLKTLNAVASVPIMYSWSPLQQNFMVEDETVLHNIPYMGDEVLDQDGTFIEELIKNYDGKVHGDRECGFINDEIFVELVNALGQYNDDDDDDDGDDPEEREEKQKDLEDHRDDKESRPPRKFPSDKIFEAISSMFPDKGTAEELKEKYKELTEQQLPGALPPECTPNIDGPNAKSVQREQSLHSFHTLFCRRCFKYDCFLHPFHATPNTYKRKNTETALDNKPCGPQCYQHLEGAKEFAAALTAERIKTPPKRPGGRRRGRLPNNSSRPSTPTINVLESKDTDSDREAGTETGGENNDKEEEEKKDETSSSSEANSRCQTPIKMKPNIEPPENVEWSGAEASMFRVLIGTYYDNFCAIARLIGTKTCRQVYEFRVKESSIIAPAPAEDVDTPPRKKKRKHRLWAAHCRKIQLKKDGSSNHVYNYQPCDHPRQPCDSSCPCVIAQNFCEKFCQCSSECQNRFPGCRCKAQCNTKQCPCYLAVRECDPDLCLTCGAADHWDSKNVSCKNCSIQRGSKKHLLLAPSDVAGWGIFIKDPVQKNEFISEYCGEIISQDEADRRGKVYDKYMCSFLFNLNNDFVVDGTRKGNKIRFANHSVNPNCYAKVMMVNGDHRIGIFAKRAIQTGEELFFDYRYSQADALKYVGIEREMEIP
Sequence of Mutant type EZH2(A677G) (O75530 whole entry partner): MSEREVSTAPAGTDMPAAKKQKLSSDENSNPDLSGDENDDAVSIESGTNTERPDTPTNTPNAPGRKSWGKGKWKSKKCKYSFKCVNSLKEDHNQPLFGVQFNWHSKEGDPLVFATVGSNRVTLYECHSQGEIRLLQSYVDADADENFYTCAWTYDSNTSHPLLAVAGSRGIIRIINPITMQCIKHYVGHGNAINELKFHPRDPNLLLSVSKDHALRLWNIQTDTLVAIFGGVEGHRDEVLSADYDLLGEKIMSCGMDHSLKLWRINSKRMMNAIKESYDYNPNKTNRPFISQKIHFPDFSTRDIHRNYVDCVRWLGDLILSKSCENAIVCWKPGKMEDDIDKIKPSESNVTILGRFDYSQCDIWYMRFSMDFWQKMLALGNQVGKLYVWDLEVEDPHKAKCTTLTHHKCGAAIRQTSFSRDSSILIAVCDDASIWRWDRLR
Sequence of Mutant type EZH2(A677G) (Q15022 whole entry partner): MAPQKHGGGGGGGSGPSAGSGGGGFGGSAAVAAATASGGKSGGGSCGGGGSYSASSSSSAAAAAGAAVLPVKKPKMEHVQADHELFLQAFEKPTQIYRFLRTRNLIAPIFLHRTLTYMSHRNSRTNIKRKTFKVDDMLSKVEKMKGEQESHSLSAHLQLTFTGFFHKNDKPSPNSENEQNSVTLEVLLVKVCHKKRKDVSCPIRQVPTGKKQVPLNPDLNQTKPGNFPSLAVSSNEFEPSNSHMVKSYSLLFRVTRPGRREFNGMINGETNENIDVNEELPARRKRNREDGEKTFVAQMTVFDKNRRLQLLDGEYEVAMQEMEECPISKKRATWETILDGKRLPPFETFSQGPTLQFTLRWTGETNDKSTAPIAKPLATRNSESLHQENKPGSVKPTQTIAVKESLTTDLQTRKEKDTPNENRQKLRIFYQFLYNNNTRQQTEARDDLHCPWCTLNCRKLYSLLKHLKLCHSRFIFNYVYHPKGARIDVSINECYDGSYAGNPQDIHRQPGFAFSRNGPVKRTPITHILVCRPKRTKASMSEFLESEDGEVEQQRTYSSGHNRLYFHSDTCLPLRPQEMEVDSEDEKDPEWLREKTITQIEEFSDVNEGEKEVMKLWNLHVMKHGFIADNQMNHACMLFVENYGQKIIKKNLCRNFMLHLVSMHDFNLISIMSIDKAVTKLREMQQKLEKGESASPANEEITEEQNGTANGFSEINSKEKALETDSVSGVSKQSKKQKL
Sequence of Mutant type EZH2(A677G) (Q09028 whole entry partner): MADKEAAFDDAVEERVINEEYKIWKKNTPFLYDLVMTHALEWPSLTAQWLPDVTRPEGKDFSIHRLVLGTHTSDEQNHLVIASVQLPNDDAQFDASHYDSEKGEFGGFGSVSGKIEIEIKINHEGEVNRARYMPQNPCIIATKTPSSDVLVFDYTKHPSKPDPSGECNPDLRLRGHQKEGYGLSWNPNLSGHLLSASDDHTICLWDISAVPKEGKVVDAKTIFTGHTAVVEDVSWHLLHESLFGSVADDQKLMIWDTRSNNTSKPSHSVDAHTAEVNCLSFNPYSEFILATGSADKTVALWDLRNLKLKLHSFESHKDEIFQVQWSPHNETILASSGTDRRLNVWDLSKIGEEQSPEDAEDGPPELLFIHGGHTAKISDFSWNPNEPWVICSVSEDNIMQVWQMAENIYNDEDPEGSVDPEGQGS
Sequence of Mutant type EZH2(A677G) (Q6ZN18 whole entry partner): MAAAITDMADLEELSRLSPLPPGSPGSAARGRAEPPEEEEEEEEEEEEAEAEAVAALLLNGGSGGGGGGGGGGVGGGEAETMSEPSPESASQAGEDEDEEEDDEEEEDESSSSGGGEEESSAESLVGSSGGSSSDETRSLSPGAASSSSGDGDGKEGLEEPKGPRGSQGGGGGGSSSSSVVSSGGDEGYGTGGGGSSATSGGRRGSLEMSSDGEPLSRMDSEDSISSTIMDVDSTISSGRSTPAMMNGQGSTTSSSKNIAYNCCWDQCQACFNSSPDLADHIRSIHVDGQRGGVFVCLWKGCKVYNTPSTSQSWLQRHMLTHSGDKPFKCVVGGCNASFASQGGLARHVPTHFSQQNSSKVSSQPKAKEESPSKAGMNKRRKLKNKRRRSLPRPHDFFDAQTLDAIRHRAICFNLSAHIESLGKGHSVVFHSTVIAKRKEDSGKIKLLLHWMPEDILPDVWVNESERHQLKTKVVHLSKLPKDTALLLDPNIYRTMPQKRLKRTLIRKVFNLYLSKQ
Sequence of Mutant type EZH2(Y641N) (Q15910 whole entry Y641N): as the sequence (Q15910 whole entry A677G) above, with Y641N, G677A counted along it
Sequence of Mutant type EZH2(Y641N) (O75530 whole entry partner): as the sequence (O75530 whole entry partner) above
Sequence of Mutant type EZH2(Y641N) (Q15022 whole entry partner): as the sequence (Q15022 whole entry partner) above
Sequence of Mutant type EZH2(Y641N) (Q09028 whole entry partner): as the sequence (Q09028 whole entry partner) above
Sequence of Mutant type EZH2(Y641N) (Q6ZN18 whole entry partner): as the sequence (Q6ZN18 whole entry partner) above
Sequence of Mutant type EZH2(Y641F) (Q15910 whole entry Y641F): as the sequence (Q15910 whole entry A677G) above, with Y641F, G677A counted along it
Sequence of Mutant type EZH2(Y641F) (O75530 whole entry partner): as the sequence (O75530 whole entry partner) above
Sequence of Mutant type EZH2(Y641F) (Q15022 whole entry partner): as the sequence (Q15022 whole entry partner) above
Sequence of Mutant type EZH2(Y641F) (Q09028 whole entry partner): as the sequence (Q09028 whole entry partner) above
Sequence of Mutant type EZH2(Y641F) (Q6ZN18 whole entry partner): as the sequence (Q6ZN18 whole entry partner) above
Sequence of wild-type EZH2 (Q15910 whole entry): as the sequence (Q15910 whole entry A677G) above, with G677A counted along it
Sequence of wild-type EZH2 (O75530 whole entry partner): as the sequence (O75530 whole entry partner) above
Sequence of wild-type EZH2 (Q15022 whole entry partner): as the sequence (Q15022 whole entry partner) above

Row | SMILES | IC50 [1] [nM] | IC50 (Mutant type EZH2(Y641F)) [nM] | AUC [2, 4] [ng·h/mL] | half-life [2, 5] [h] | AUC [2, 6] [ng·h/mL] | Cmax [2, 7] [ng/mL] | bioavailability [2, 8] [%] | IC50 [3] [nM] | IC50 (Mutant type EZH2(Y641N)) [nM] | IC50 (Mutant type EZH2(A677G)) [nM] | IC50 (wild-type EZH2) [nM] | AUC [2, 9] [ng·h/mL] | half-life [2, 9] [h] | AUC [2, 10] [ng·h/mL] | Cmax [2, 10] [ng/mL] | bioavailability [2, 10] [%]
1 | CCN(c1cc(-c2ccc3c(c2)NCC32CCOCC2)cc(C(=O)NCc2c(C)cc(C)[nH]c2=O)c1C)C1CCNCC1 [Example 6, N-((4,6-dimethyl-2-oxo-1,2-dihydropyridin-3-yl)methyl)-3-(ethyl(piperidin-4-yl)amino)-2-methyl-5-(2′,3′,5′,6′-tetrahydrospiro[dihydroindole-3,4′-pyran]-6-yl)benzamide] | 1.94 | 0.2 | 936 | 1.26 | 1190 | 494 | 25.5 | 1.14 | 0.07 | 0.2 | – | – | – | – | – | –
2 | CCN(c1cc(-c2cc3c(cc2F)C2(CCOCC2)CC3)cc(C(=O)NCc2c(OC)cc(C)[nH]c2=O)c1C)C1CCOCC1 [Example 17, 3-(ethyl(tetrahydro-2H-pyran-4-yl)amino)-5-(6-fluoro-2,2′,3,3′,5′,6′-hexahydrospiro[indene-1,4′-pyran]-5-yl)-N-((4-methoxy-6-methyl-2-carbonyl-1,2-dihydropyridin-3-yl)methyl)-2-methylbenzamide] | 3.09 | – | – | – | – | – | – | 2.78 | 0.3 | – | 1.1 | – | – | – | – | –
3 | CCN(c1cc(-c2cc3c(cc2F)CCC32CCOCC2)cc(C(=O)NCc2c(C)cc(C)[nH]c2=O)c1C)C1CCOCC1 [Example 24, N-((4,6-dimethyl-2-carbonyl-1,2-dihydropyridin-3-yl)methyl)-3-(ethyl(tetrahydro-2H-pyran-4-yl)amino)-5-(5-fluoro-2,2′,3,3′,5′,6′-hexahydrospiro[indene-1,4′-pyran]-6-yl)-2-methylbenzamide] | 0.41 | 0.56 | 943 | 1.08 | 1350 | 479 | 28.7 | 0.1 | 0.23 | 0.41 | – | – | – | – | – | –
4 | CCN(c1cc(-c2ccc3c(c2)C=CC32CCN(C(C)C)CC2)cc(C(=O)NCc2c(OC)cc(C)[nH]c2=O)c1C)C1CCOCC1 [Example 37, 3-(ethyl(tetrahydro-2H-pyran-4-yl)amino)-5-(1′-isopropylspiro[indene-1,4′-piperidine]-5-yl)-N-((4-methoxy-6-methyl-2-carbonyl-1,2-dihydropyridin-3-yl)methyl)-2-methylbenzamide] | 0.95 | 0.54 | – | – | – | – | – | 0.87 | 0.23 | – | 0.6 | 903 | 1.25 | 1540 | 444 | 34.1
5 | CCN(c1cc(-c2ccc3c(c2)C(=O)C2(CCOCC2)C3)cc(C(=O)NCc2c(C)cc(C)[nH]c2=O)c1C)C1CCOCC1 [Example 78, N-((4,6-dimethyl-2-oxo-1,2-dihydropyridin-3-yl)methyl)-3-(ethyl(tetrahydro-2H-pyran-4-yl)amino)-2-methyl-5-(1-oxo-1,2′,3,3′,5′,6′-hexahydrospiro[indene-2,4′-pyran]-6-yl)benzamide] | 2.21 | – | – | – | – | – | – | 1.89 | 0.23 | – | 0.81 | – | – | – | – | –
6 | CCN(c1cc(-c2ccc3c(c2)NC(=O)C32CCOCC2)cc(C(=O)NCc2c(C)cc(C)[nH]c2=O)c1C)C1CCN(C)CC1 [Example 81, N-((4,6-dimethyl-2-oxo-1,2-dihydropyridin-3-yl)methyl)-3-(ethyl(1-methylpiperidin-4-yl)amino)-2-methyl-5-(2-oxo-2′,3′,5′,6′-tetrahydrospiro[dihydroindole-3,4′-pyran]-6-yl)benzamide] | 3.67 | 0.89 | – | – | – | – | – | 4.73 | 0.48 | 0.63 | 1.37 | – | – | – | – | –
7 | CCN(c1cc(-c2ccc3c(c2)NC(=O)C32CCOCC2)cc(C(=O)NCc2c(C)cc(C)[nH]c2=O)c1C)C1CCN(C2COC2)CC1 [Example 82, N-((4,6-dimethyl-2-oxo-1,2-dihydropyridin-3-yl)methyl)-2-methyl-3-(ethyl(1-(oxetan-3-yl)piperidin-4-yl)amino)-5-(2-oxo-2′,3′,5′,6′-tetrahydrospiro[dihydroindole-3,4′-pyran]-6-yl)benzamide] | 3.62 | 0.52 | – | – | – | – | – | 2.85 | 0.16 | – | 0.83 | – | – | – | – | –
8 | CCN(c1cc(-c2ccc3c(c2)NC(=O)C32CCOCC2)cc(C(=O)NCc2c(C)cc(C)[nH]c2=O)c1C)C1CCS(=O)(=O)CC1 [Example 96, N-((4,6-Dimethyl-2-oxo-1,2-dihydropyridin-3-yl)methyl)-3-((ethyl)(1,1-dioxotetrahydro-2H-thiapyran-4-yl)amino)-2-methyl-5-(2-oxo-2′,3′,5′,6′-tetrahydrospiro[dihydroindole-3,4′-pyran]-6-yl)benzamide] | 4.57 | 0.88 | 990 | 1.64 | 1540 | 436 | 31.1 | 3.63 | – | 0.57 | 1.24 | – | – | – | – | –
9 | CCN(c1cc(-c2ccc3c(c2)NC(=O)C32CCOCC2)cc(C(=O)NCc2c(C)cc(C)[nH]c2=O)c1C)C1CCC(N(C)C)CC1 (stereo not drawn) [Example 98, N-((4,6-Dimethyl-2-oxo-1,2-dihydropyridin-3-yl)methyl)-3-((ethyl)(4-dimethylamino-cyclohexyl)amino)-2-methyl-5-(2-oxo-2′,3′,5′,6′-tetrahydrospiro[dihydroindole-3,4′-pyran]-6-yl)benzamide] | 2.23 | 0.36 | – | – | – | – | – | 1.06 | 0.21 | – | 0.67 | – | – | – | – | –
10 | CCN(c1cc(-c2ccc3c(c2)NC(=O)C32CCOCC2)cc(C(=O)NCc2c(C)cc(C)[nH]c2=O)c1C)C1CC(C)OC(C)C1 (stereo not drawn) [Example 104, N-((4,6-Dimethyl-2-oxo-1,2-dihydropyridin-3-yl)methyl)-3-(ethyl(2,6-dimethyltetrahydro-2H-pyran-4-yl)amino)-2-methyl-5-(2-oxo-2′,3′,5′,6′-tetrahydrospiro[dihydroindole-3,4′-pyran]-6-yl)benzamide] | 1.82 | 0.31 | – | – | – | – | – | 1.73 | 0.19 | 0.27 | – | – | – | – | – | –
11 | CCN(c1cc(-c2ccc3c(c2)CCC2(CCOCC2)C3=O)cc(C(=O)NCc2c(C)cc(C)[nH]c2=O)c1C)C1CCOCC1 [Example 106, N-((4,6-Dimethyl-2-oxo-1,2-dihydropyridin-3-yl)methyl)-3-(ethyl(tetrahydro-2H-pyran-4-yl)amino)-2-methyl-5-(1-oxo-2′,3,3′,4,5′,6′-hexahydro-1H-spiro[naphthalene-2,4′-pyran]-6-yl)benzamide] | 3.89 | 0.82 | – | – | – | – | – | 3.41 | – | 0.71 | 0.98 | – | – | – | – | –
12 | CCN(c1cc(-c2ccc3c(c2)C(=O)C2(CCN(C)CC2)C3)cc(C(=O)NCc2c(C)cc(C)[nH]c2=O)c1C)C1CCOCC1 [Example 107, N-((4,6-Dimethyl-2-oxo-1,2-dihydropyridin-3-yl)methyl)-3-(ethyl(tetrahydro-2H-pyran-4-yl)amino)-2-methyl-5-(1′-methyl-1-oxo-1,3-dihydrospiro[indene-2,4′-piperidine]-6-yl)benzamide] | 5.76 | 0.86 | – | – | – | – | – | 4.38 | – | 0.67 | 1.03 | – | – | – | – | –
13 | CCN(c1cc(-c2ccc3c(c2)CCC32CCOCC2)cc(C(=O)NCc2c(OC)cc(C)[nH]c2=O)c1C)C1CCOCC1 [Example 113, 3-(Ethyl(tetrahydro-2H-pyran-4-yl)amino)-5-(2,2′,3,3′,5′,6′-hexahydrospiro[indene-1,4′-pyran]-5-yl)-N-((4-methoxy-6-methyl-2-oxo-1,2-dihydropyridin-3-yl)methyl)-2-methylbenzamide] | 2.5 | 0.54 | – | – | – | – | – | 1.67 | 0.27 | 0.38 | – | – | – | – | – | –
14 | CCN(c1cc(-c2ccc3c(c2)NC(=O)C32CCNCC2)cc(C(=O)NCc2c(C)cc(C)[nH]c2=O)c1C)C1CCNCC1 [Example 117, N-((4,6-dimethyl-2-oxo-1,2-dihydropyridin-3-yl)methyl)-3-(ethyl(piperidin-4-yl)amino)-2-methyl-5-(2-oxospiro[indole-3,4′-piperidine]-6-yl)benzamide] | 3.57 | 0.94 | – | – | – | – | – | 2.31 | – | 0.61 | 1.08 | – | – | – | – | –
15 | CCN(c1cc(-c2ccc3c(c2)NC(=O)C32CCOCC2)cc(C(=O)NCc2c(OC)cc(C)[nH]c2=O)c1C)C1CCC(N(C)C2COC2)CC1 (stereo not drawn) [Example 122, 3-(Ethyl(4-(methyl(oxetan-3-yl)amino)cyclohexyl)amino)-N-((4-methoxy-6-methyl-2-oxo-1,2-dihydropyridin-3-yl)methyl)-2-methyl-5-(2-oxo-2′,3′,5′,6′-tetrahydrospiro[dihydroindole-3,4′-pyran]-6-yl)benzamide] | 2.48 | – | – | – | – | – | – | 2.91 | 0.21 | – | 0.87 | – | – | – | – | –
